For one experiment, the target named is CLK2 kinase (Homo sapiens, UniProt P49760). Briefly: CLK2 kinase activity assay (Z-lyte FRET).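 Also: FRET read-out as coumarin to fluorescein emission ratio, unphosphorylated peptide as 0% and phosphorylated peptide as 100% controls, duplicate reactions, non-linear regression fit of dose-response curves.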 The class given is biochemical. As to conditions: Z-lyte Ser/Thr 6 peptide, 60 μM ATP, 1 h at room temperature.
The target of a further experiment is CLK3 kinase (Homo sapiens, UniProt P49761). Briefly: CLK3 kinase activity assay (Z-lyte FRET).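 Also: kinase activity read as coumarin/fluorescein emission ratio by FRET, unphosphorylated peptide as 0% and phosphorylated peptide as 100% control, values from non-linear regression of dose-response curves.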 In kind it is biochemical. As to conditions: Z-lyte Ser/Thr 18 peptide, 156 μM ATP, 1 h at room temperature.
Sequence of CLK3 kinase (P49761 whole entry): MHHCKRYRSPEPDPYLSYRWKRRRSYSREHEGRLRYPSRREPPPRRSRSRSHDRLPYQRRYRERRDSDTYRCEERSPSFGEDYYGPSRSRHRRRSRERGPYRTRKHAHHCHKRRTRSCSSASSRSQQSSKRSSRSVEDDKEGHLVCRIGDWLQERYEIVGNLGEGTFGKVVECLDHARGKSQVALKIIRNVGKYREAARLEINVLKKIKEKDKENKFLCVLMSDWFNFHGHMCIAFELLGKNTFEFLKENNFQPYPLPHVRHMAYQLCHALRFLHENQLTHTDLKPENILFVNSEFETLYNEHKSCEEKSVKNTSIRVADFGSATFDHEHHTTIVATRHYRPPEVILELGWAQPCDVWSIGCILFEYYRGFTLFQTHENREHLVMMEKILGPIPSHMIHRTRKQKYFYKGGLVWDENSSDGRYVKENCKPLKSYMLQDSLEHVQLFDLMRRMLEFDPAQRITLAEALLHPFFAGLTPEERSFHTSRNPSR
For experiment [1], the system named is MMP-3 levels in supernatant of chondrocytes stimulated with IL1-β. Briefly: Chondrocyte protection assay compound screening (MMP-3 LANCE Ultra). The class given is cell-based, human. As to conditions: Homo sapiens, Chondrocyte, IL1-β 10 ng/mL overnight, 11-point curves from 3 μM to 0.05 nM; for Emax: read-out: Maximum % Inhibition. The gist of the method: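 Primary human chondrocytes (passage 2–5) in differentiation medium were stimulated with 10 ng/mL IL1-β for an overnight incubation at 37 °C. MMP-3 in 1:7-diluted supernatant was read by TR-FRET immunoassay against a standard curve, normalised to IL1-β-stimulated wells; EC50 and maximum % inhibition came from nonlinear regression.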

Experiment [2] concerns Wnt pathway activity (SW480 colon carcinoma cells stably expressing the Sp5-Luc reporter). Briefly: Wnt pathway activity screening assay (Sp5-Luc reporter gene assay). As to conditions: Homo sapiens, SW480, Table 4; SW480 cells stably expressing Sp5-Luc reporter, 10-point dose-response from 10 μM, 36 to 48 hours. For orientation: A reporter such as luciferase makes a cellular process visible.

Sequence of CLK2 kinase (P49760 whole entry): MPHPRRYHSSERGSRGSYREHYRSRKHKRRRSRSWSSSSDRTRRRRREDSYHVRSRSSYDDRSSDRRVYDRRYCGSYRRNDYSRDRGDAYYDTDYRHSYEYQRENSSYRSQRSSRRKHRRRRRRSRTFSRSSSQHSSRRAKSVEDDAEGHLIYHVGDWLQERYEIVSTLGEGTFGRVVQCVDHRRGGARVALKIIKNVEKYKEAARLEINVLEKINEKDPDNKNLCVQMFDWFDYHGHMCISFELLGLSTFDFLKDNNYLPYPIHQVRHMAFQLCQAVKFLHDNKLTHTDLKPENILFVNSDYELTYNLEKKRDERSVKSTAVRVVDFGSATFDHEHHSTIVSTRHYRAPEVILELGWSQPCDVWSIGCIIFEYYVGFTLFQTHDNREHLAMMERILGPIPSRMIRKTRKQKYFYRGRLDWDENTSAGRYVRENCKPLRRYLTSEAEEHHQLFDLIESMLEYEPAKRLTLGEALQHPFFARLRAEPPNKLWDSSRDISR

Consider `CN1CCN(c2cc(C(=O)Nc3cc4cc(-c5ccc(N)nc5)ccc4cn3)ccn2)CC1` [compound 596], for which the EC50 (commonly the concentration that produces a half-maximal response) is 1 nM on CLK2 kinase, 42 nM on CLK3 kinase, 798 nM in experiment [1] and 710 nM in experiment [2]. Besides, the Emax in experiment [1] worked out at 39.9%.

Turning to `O=C(Nc1c[nH]nc1C(=O)Nc1cccnc1)c1cccnc1` [compound 1], the EC50 stood at 23 nM at CLK2 kinase, 5300 nM on CLK3 kinase, 38.9 nM in experiment [1] and 20.5 nM in experiment [2]. Moreover, in experiment [1], the Emax is 100%.

As for `O=C(Nc1cccnc1)c1n[nH]c2ccc(-c3cncc(CN4CCS(=O)(=O)CC4)c3)cc12` [compound 100], the half-maximal effective concentration (EC50) on CLK2 kinase was found to be 1 nM; at CLK3 kinase, 37 nM; in experiment [1], 616 nM; in experiment [2], 210 nM. Also, the Emax in experiment [1] turned out to be 8.6%.

With `CC(C)N1CCC(c2nc(C(=O)Nc3cc4cc(-c5cnn(C)c5)ccc4cn3)co2)CC1` [compound 563], the 50% effective concentration (EC50) came out at 5 nM at CLK2 kinase, 26 nM on CLK3 kinase, 57.3 nM in experiment [1] and 80 nM in experiment [2]. Moreover, the Emax in experiment [1] came to 72.4%.

`NC(=O)c1ccc(NC(=O)c2n[nH]c3ccc(-c4cncc(CN5CCCCC5)c4)cc23)cn1` [compound 87]: the concentration for a half-maximal effect (EC50) on CLK2 kinase worked out at 1 nM; at CLK3 kinase, 11 nM; in experiment [1] it was 2220 nM; in experiment [2] it was 13 nM. In experiment [1], the Emax amounted to 100%.

As to `O=C(Nc1c[nH]nc1C(=O)Nc1ccc(OCCN2CCCC2)cc1)c1cccnc1` [compound 3], the EC50 on CLK2 kinase was found to be 24 nM; at CLK3 kinase it was 3700 nM; in experiment [1] it was 811 nM; in experiment [2] it was 119 nM. In addition, the Emax in experiment [1] turned out to be 23.7%.

Regarding `Cn1ncc(-c2ccc3cnc(NC(=O)[C@H]4CC[C@H](CO)CC4)cc3c2)c1CN1CCCCC1` [compound 570], the EC50 at CLK2 kinase was 9 nM; on CLK3 kinase, 143 nM; in experiment [1], at least 3000 nM; in experiment [2], 594 nM. In addition, the Emax in experiment [1] amounted to 80.6%.

As for `FC1(F)CCN(Cc2cncc(-c3cnc4[nH]nc(-c5nc6c(-c7ccoc7)nccc6[nH]5)c4c3)c2)C1` [compound 241], the EC50 on CLK2 kinase came out at 4 nM; at CLK3 kinase, 34 nM; in experiment [1], 0.1 nM; in experiment [2], 162 nM. Further, in experiment [1], the Emax is 87.1%.

For the compound `CO[C@H]1CC[C@H](C(=O)Nc2cc3cc(-c4cnn(C)c4CN4CCCCC4)ccc3cn2)CC1` [compound 569], the EC50 on CLK2 kinase is 8 nM; on CLK3 kinase it was 164 nM; in experiment [1], at least 3000 nM; in experiment [2], 471 nM. Also, the Emax in experiment [1] was 0.2%.

With `O=C(CC1CCNCC1)Nc1cncc(-c2ccc3[nH]nc(-c4nc5c(-c6ccsc6)nccc5[nH]4)c3n2)c1` [compound 248], the EC50 is 1 nM on CLK2 kinase, 66 nM at CLK3 kinase, at least 3000 nM in experiment [1] and above 10000 nM in experiment [2]. Besides, in experiment [1], the Emax stood at 40.7%.

Turning to `CC(C)n1cc(C(=O)Nc2cc3cc(-c4cncn4C(C)C)ccc3cn2)cn1` [compound 586], the concentration giving a half-maximal response (EC50) was found to be 7 nM on CLK2 kinase, 23 nM on CLK3 kinase, 4.6 nM in experiment [1] and 115 nM in experiment [2]. Moreover, the Emax in experiment [1] is 41.7%.

In the case of `COc1cncc(C(=O)Nc2c[nH]nc2C(=O)Nc2ccc(CN(C)C)cc2)c1` [compound 4], the EC50 is 57 nM at CLK2 kinase, 6610 nM on CLK3 kinase, at least 3000 nM in experiment [1] and 123 nM in experiment [2]. In experiment [1], the Emax turned out to be 99.9%.

Take `O=C(Nc1cccnc1)c1n[nH]c2ccc(-c3cncc(CN4CC(CO)(CO)C4)c3)cc12` [compound 69]: the EC50 is 2 nM on CLK2 kinase, 62 nM at CLK3 kinase, 69.7 nM in experiment [1] and above 10000 nM in experiment [2]. The Emax in experiment [1] was found to be 12.3%.

As to `Cc1ncc(C(=O)Nc2cc3cc(-c4cnc(C)n4C)ccc3cn2)s1` [compound 589], the concentration giving a half-maximal response (EC50) on CLK2 kinase is 2 nM; at CLK3 kinase, 31 nM; in experiment [1] it was at least 3000 nM; in experiment [2], 102 nM. Moreover, in experiment [1], the Emax turned out to be 43.5%.

For `CN1CCC(Oc2ccc(NC(=O)c3n[nH]c4cc(F)c(-c5cnn(C)c5)cc34)cn2)CC1` [compound 110], the half-maximal effective concentration (EC50) at CLK2 kinase came to 1 nM; on CLK3 kinase, 48 nM; in experiment [1] it was 1080 nM; in experiment [2], 120 nM. For the same compound, the Emax in experiment [1] was determined as 87.2%.

Take `O=C(Nc1ccc(N2CC(CO)(CO)C2)nc1)c1n[nH]c2ccc(-c3cncc(CN4CCCCC4)c3)cc12` [compound 90]: the EC50 at CLK2 kinase worked out at 1 nM; on CLK3 kinase, 39 nM; in experiment [1], 6.7 nM; in experiment [2], 1500 nM. Besides, the Emax in experiment [1] is 29.7%.

Turning to `O=C(Nc1c[nH]nc1C(=O)Nc1ccc(N2CCCC2)nc1)c1cncc(OC2CCNCC2)c1` [compound 11], the concentration giving a half-maximal response (EC50) on CLK2 kinase was 9 nM; on CLK3 kinase, 5150 nM; in experiment [1], at least 3000 nM; in experiment [2], 2.5 nM. In addition, the Emax in experiment [1] is 80%.

For `CN1CCN(c2cc(C(=O)Nc3cc4nc(-c5cnn(C)c5)ccc4cn3)ccn2)CC1` [compound 606], the EC50 is 4 nM at CLK2 kinase, 60 nM on CLK3 kinase, at least 3000 nM in experiment [1] and 102 nM in experiment [2]. Besides, the Emax in experiment [1] came out at 76.1%.

For `COc1ccc(NC(=O)c2n[nH]c3ccc(-c4cncc(CO)c4)cc23)cn1` [compound 67], the 50% effective concentration (EC50) at CLK2 kinase is 1 nM; at CLK3 kinase, 41 nM; in experiment [1], at least 3000 nM; in experiment [2], 96.6 nM. In experiment [1], the Emax amounted to 48.7%.

With `O=C(Nc1cc2cc(-c3cncc(NC4CCNCC4)n3)ncc2cn1)C1CCOCC1` [compound 613], the concentration giving a half-maximal response (EC50) on CLK2 kinase is 7 nM; at CLK3 kinase it was 133 nM; in experiment [1] it was 46.6 nM; in experiment [2], 3640 nM. For the same compound, the Emax in experiment [1] turned out to be 51.4%.

Regarding `O=C(Nc1cccnc1)c1n[nH]c2ncc(-c3cccnc3)cc12` [compound 61], the EC50 at CLK2 kinase was determined as 8 nM; on CLK3 kinase, 916 nM; in experiment [1], 2.2 nM; in experiment [2], 795 nM. Besides, in experiment [1], the Emax was determined as 69.2%.

As for `O=C(Nc1ccc(CN2CCCC2)cc1)c1n[nH]c2ccc(-c3cnn(C4CC4)c3)cc12` [compound 113], the concentration giving a half-maximal response (EC50) on CLK2 kinase is 1 nM; at CLK3 kinase, 133 nM; in experiment [1], at least 3000 nM; in experiment [2], 451 nM. Moreover, the Emax in experiment [1] was found to be 57%.

With `Cc1n[nH]c2ccc(-c3cncc(N4CC(C)(N)C4)n3)cc12` [compound 36], the EC50 at CLK2 kinase is 70 nM; at CLK3 kinase it was 3400 nM; in experiment [1] it was 1610 nM; in experiment [2] it was 3510 nM.

On to `COc1cncc(C(=O)Nc2c[nH]nc2C(=O)Nc2ccc3c(c2)CCNC3)c1` [compound 8], for which the 50% effective concentration (EC50) was determined as 27 nM on CLK2 kinase, 6160 nM at CLK3 kinase, 342 nM in experiment [1] and 613 nM in experiment [2]. Besides, the Emax in experiment [1] is 76%.

For the compound `CC(C)Nc1cncc(-c2ccc3cnc(NC(=O)c4cccc(C5CCN(C)CC5)c4)cc3c2)n1` [compound 599], the 50% effective concentration (EC50) at CLK2 kinase is 2 nM; at CLK3 kinase it was 11 nM; in experiment [1], at least 3000 nM; in experiment [2], 132 nM. Besides, the Emax in experiment [1] is 66.4%.

On to `O=C(Nc1ccc(CN2CCCC2)cc1)c1n[nH]c2ccc(-c3cnccn3)cc12` [compound 104], for which the EC50 at CLK2 kinase stood at 2 nM; at CLK3 kinase it was 378 nM; in experiment [1], 7.1 nM; in experiment [2] it was 1660 nM. Also, the Emax in experiment [1] is 72.8%.

`O=C(NCc1cc(F)cc(F)c1)c1n[nH]c2ccc(-c3cncc(CN4CCCCC4)c3)cc12` [compound 77]: the EC50 is 6 nM on CLK2 kinase, 1670 nM on CLK3 kinase, at least 3000 nM in experiment [1] and 1820 nM in experiment [2]. The Emax in experiment [1] is 84.8%.

Turning to `Cn1cc(-c2ccc3cnc(NC(=O)c4ccc5nccnc5c4)cc3n2)cn1` [compound 608], the half-maximal effective concentration (EC50) on CLK2 kinase was 8 nM; on CLK3 kinase, 141 nM; in experiment [1], at least 3000 nM; in experiment [2] it was 447 nM. The Emax in experiment [1] was 18.3%.

For the compound `COc1cncc(C(=O)Nc2c[nH]nc2C(=O)Nc2ccc3c(c2)CCN(C)C3)c1` [compound 9], the EC50 on CLK2 kinase was 45 nM; on CLK3 kinase it was 6090 nM; in experiment [1] it was at least 3000 nM; in experiment [2] it was 558 nM. The Emax in experiment [1] was 65.6%.

Regarding `Cn1cc(-c2cc3c(C(=O)Nc4ccc5c(c4)CNC5)n[nH]c3cc2F)cn1` [compound 112], the EC50 at CLK2 kinase is 1 nM; at CLK3 kinase, 116 nM; in experiment [1] it was 1200 nM; in experiment [2], 793 nM. Besides, the Emax in experiment [1] was determined as 88.3%.

In the case of `CCN(C)Cc1cncc(-c2cnc3[nH]nc(-c4nc5c(-c6cccc(F)c6)cncc5[nH]4)c3c2)c1` [compound 140], the concentration giving a half-maximal response (EC50) at CLK2 kinase turned out to be 2 nM; on CLK3 kinase it was 22 nM; in experiment [1] it was 0.8 nM; in experiment [2], 643 nM. Besides, in experiment [1], the Emax was found to be 76.4%.

Values taken from patent US20230000842A1, “METHODS OF TREATING CARTILAGE DISORDERS THROUGH INHIBITION OF CLK AND DYRK” (SAMUMED, LLC, priority 2019, published 2023).
